According to ChEMBL document CHEMBL3272121, “Hypolipidemic analogues of ethyl 4-benzyloxybenzoate” (J Med Chem, 1977):

Assays:
Rattus norvegicus [1] = assay: Hypolipidemic activity in CFY Sprague-Dawley rat assessed as serum cholesterol level at 0.25% dietary level administered for 7 days relative to control; type: functional
Rattus norvegicus [2] = assay: Hypolipidemic activity in CFY Sprague-Dawley rat assessed as serum triglyceride level at 0.25% dietary level administered for 7 days relative to control; type: functional
Rattus norvegicus [3] = assay: Toxicity in CFY Sprague-Dawley rat assessed as body weight gain at 0.25% dietary level administered for 7 days relative to control; type: organism-based; conditions: in vivo, po, 168 h
Rattus norvegicus [4] = assay: Toxicity in CFY Sprague-Dawley rat assessed as relative liver weight at 0.25% dietary level administered for 7 days relative to control; type: organism-based; conditions: in vivo, po, 168 h
Rattus norvegicus [5] = assay: Hypolipidemic activity in CFY Sprague-Dawley rat assessed as liver lipid per gm of liver at 0.25% dietary level administered for 7 days relative to control; type: functional

O=Cc1ccc(OCc2ccc(F)cc2)cc1
Activity (Rattus norvegicus [1]): -15%
Activity (Rattus norvegicus [2]): -59%
Activity (Rattus norvegicus [3]): 16%
Activity (Rattus norvegicus [4]): 15%

O=C(OCc1ccccc1)c1ccc(OCc2ccccc2)cc1
Activity (Rattus norvegicus [1]): -21%
Activity (Rattus norvegicus [2]): -50%
Activity (Rattus norvegicus [3]): 6%
Activity (Rattus norvegicus [4]): 6%
Activity (Rattus norvegicus [5]): 7%

COc1cc(C(=O)O)ccc1OCc1ccccc1
Activity (Rattus norvegicus [1]): 0%
Activity (Rattus norvegicus [2]): -28%
Activity (Rattus norvegicus [3]): 15%
Activity (Rattus norvegicus [4]): 6%

CCOC(=O)c1ccc(OCc2ccccc2OC)cc1
Activity (Rattus norvegicus [1]): -13%
Activity (Rattus norvegicus [2]): -42%
Activity (Rattus norvegicus [3]): -10%
Activity (Rattus norvegicus [4]): -2%
Activity (Rattus norvegicus [5]): 7%

O=C(O)c1ccc(OCc2ccc(F)cc2)cc1
Activity (Rattus norvegicus [1]): -28%
Activity (Rattus norvegicus [2]): -49%
Activity (Rattus norvegicus [3]): -3%
Activity (Rattus norvegicus [4]): 2%
Activity (Rattus norvegicus [5]): 8%

CCOC(=O)c1ccc(OCc2cccc(Cl)c2)cc1
Activity (Rattus norvegicus [1]): -19%
Activity (Rattus norvegicus [2]): -6%
Activity (Rattus norvegicus [3]): -1%
Activity (Rattus norvegicus [4]): 10%
Activity (Rattus norvegicus [5]): -2%

N#Cc1ccc(OCc2ccc(F)cc2)cc1
Activity (Rattus norvegicus [1]): -17%
Activity (Rattus norvegicus [2]): 1%
Activity (Rattus norvegicus [3]): 6%
Activity (Rattus norvegicus [4]): 20%
Activity (Rattus norvegicus [5]): 7%

CCOC(=O)c1ccc(OCc2ccccc2C)cc1
Activity (Rattus norvegicus [1]): -10%
Activity (Rattus norvegicus [2]): -58%
Activity (Rattus norvegicus [3]): -23%
Activity (Rattus norvegicus [4]): 0%

Cc1ccc(COc2ccc(C(=O)O)cc2)cc1
Activity (Rattus norvegicus [1]): -10%
Activity (Rattus norvegicus [2]): -57%
Activity (Rattus norvegicus [3]): -2%
Activity (Rattus norvegicus [4]): 11%

CCOC(=O)c1ccc(OCc2ccc(Cl)cc2Cl)cc1
Activity (Rattus norvegicus [1]): -18%
Activity (Rattus norvegicus [2]): -42%
Activity (Rattus norvegicus [3]): -15%
Activity (Rattus norvegicus [4]): -2%
Activity (Rattus norvegicus [5]): 8%

O=C([O-])c1ccc(OCc2ccccc2)cc1.O=C([O-])c1ccc(OCc2ccccc2)cc1.[Ca+2]
Activity (Rattus norvegicus [1]): -8%
Activity (Rattus norvegicus [2]): -53%
Activity (Rattus norvegicus [3]): -12%
Activity (Rattus norvegicus [4]): 0%

OCc1ccc(OCc2ccccc2)cc1
Activity (Rattus norvegicus [1]): -3%
Activity (Rattus norvegicus [2]): -45%
Activity (Rattus norvegicus [3]): 11%
Activity (Rattus norvegicus [4]): 15%

NC(=O)c1ccc(OCc2ccccc2)cc1
Activity (Rattus norvegicus [1]): -1%
Activity (Rattus norvegicus [2]): -63%
Activity (Rattus norvegicus [3]): -2%
Activity (Rattus norvegicus [4]): 13%

CCOC(=O)CCc1ccc(OCc2cccc(F)c2)cc1
Activity (Rattus norvegicus [1]): -11%
Activity (Rattus norvegicus [2]): 57%
Activity (Rattus norvegicus [3]): 12%
Activity (Rattus norvegicus [4]): 7%

CCOC(=O)c1ccc(OCc2ccccc2Cl)cc1
Activity (Rattus norvegicus [1]): -7%
Activity (Rattus norvegicus [2]): -46%
Activity (Rattus norvegicus [3]): -16%
Activity (Rattus norvegicus [4]): 7%

CCOC(=O)c1ccc(OCc2cc(Cl)ccc2Cl)cc1
Activity (Rattus norvegicus [1]): -25%
Activity (Rattus norvegicus [2]): -56%
Activity (Rattus norvegicus [3]): 4%
Activity (Rattus norvegicus [4]): 13%
Activity (Rattus norvegicus [5]): 22%

COc1cc(C=O)ccc1OCc1ccccc1
Activity (Rattus norvegicus [1]): -23%
Activity (Rattus norvegicus [2]): -18%
Activity (Rattus norvegicus [3]): -16%
Activity (Rattus norvegicus [4]): 0%
Activity (Rattus norvegicus [5]): 1%

O=C(c1ccc(OCc2ccccc2)cc1)N1CCCCC1
Activity (Rattus norvegicus [1]): 14%
Activity (Rattus norvegicus [2]): 10%
Activity (Rattus norvegicus [3]): -67%
Activity (Rattus norvegicus [4]): 2%

CCOC(=O)c1ccc(COc2ccc(F)cc2)cc1
Activity (Rattus norvegicus [1]): -14%
Activity (Rattus norvegicus [2]): -50%
Activity (Rattus norvegicus [3]): 16%
Activity (Rattus norvegicus [4]): 19%

N#Cc1ccc(OCc2ccccc2)cc1
Activity (Rattus norvegicus [1]): 7%
Activity (Rattus norvegicus [2]): -31%
Activity (Rattus norvegicus [3]): -14%
Activity (Rattus norvegicus [4]): 8%

O=C(O)c1ccc(OCc2ccc(Cl)c(Cl)c2)cc1
Activity (Rattus norvegicus [1]): -9%
Activity (Rattus norvegicus [2]): -20%
Activity (Rattus norvegicus [3]): 7%
Activity (Rattus norvegicus [4]): 18%

CCOC(=O)Cc1ccc(OCc2cccc(F)c2)cc1
Activity (Rattus norvegicus [1]): -37%
Activity (Rattus norvegicus [2]): -71%
Activity (Rattus norvegicus [3]): -17%
Activity (Rattus norvegicus [4]): 18%
Activity (Rattus norvegicus [5]): 9%

CCCCOC(=O)c1ccc(OCc2ccccc2)cc1
Activity (Rattus norvegicus [1]): -10%
Activity (Rattus norvegicus [2]): -47%
Activity (Rattus norvegicus [3]): -18%
Activity (Rattus norvegicus [4]): 4%

CCOC(=O)c1ccc(COc2ccc(C)cc2)cc1
Activity (Rattus norvegicus [1]): -20%
Activity (Rattus norvegicus [2]): -41%
Activity (Rattus norvegicus [3]): 5%
Activity (Rattus norvegicus [4]): 4%
Activity (Rattus norvegicus [5]): 13%

CCOC(=O)c1ccc(COc2ccc(Cl)cc2)cc1
Activity (Rattus norvegicus [1]): -13%
Activity (Rattus norvegicus [2]): 7%
Activity (Rattus norvegicus [3]): -15%
Activity (Rattus norvegicus [4]): 42%

CCOC(=O)Cc1ccc(OCc2ccccc2F)cc1
Activity (Rattus norvegicus [1]): -29%
Activity (Rattus norvegicus [2]): -64%
Activity (Rattus norvegicus [3]): -20%
Activity (Rattus norvegicus [4]): -22%
Activity (Rattus norvegicus [5]): -1%

N#Cc1ccc(OCc2ccc(Cl)c(Cl)c2)cc1
Activity (Rattus norvegicus [1]): -19%
Activity (Rattus norvegicus [2]): -6%
Activity (Rattus norvegicus [3]): -9%
Activity (Rattus norvegicus [4]): 18%
Activity (Rattus norvegicus [5]): 8%

CCOC(=O)c1ccc(COc2ccc(Br)cc2)cc1
Activity (Rattus norvegicus [1]): -6%
Activity (Rattus norvegicus [2]): -16%
Activity (Rattus norvegicus [3]): 3%
Activity (Rattus norvegicus [4]): 24%

CCOC(=O)c1ccc(COc2ccc(C)cc2C)cc1
Activity (Rattus norvegicus [1]): 3%
Activity (Rattus norvegicus [2]): 2%
Activity (Rattus norvegicus [3]): 0%
Activity (Rattus norvegicus [4]): 0%

CCCCCCCCCCOC(=O)c1ccc(OCc2ccccc2)cc1
Activity (Rattus norvegicus [1]): -9%
Activity (Rattus norvegicus [2]): -64%
Activity (Rattus norvegicus [3]): -17%
Activity (Rattus norvegicus [4]): 13%

O=C([O-])c1ccc(OCc2ccccc2)cc1.[K+]
Activity (Rattus norvegicus [1]): -20%
Activity (Rattus norvegicus [2]): -57%
Activity (Rattus norvegicus [3]): -12%
Activity (Rattus norvegicus [4]): 0%

CCCCCCCCCCCCNC(=O)c1ccc(OCc2ccccc2)cc1
Activity (Rattus norvegicus [1]): 1%
Activity (Rattus norvegicus [2]): -11%
Activity (Rattus norvegicus [3]): 2%
Activity (Rattus norvegicus [4]): -5%

Cc1ccc(OCc2ccccc2)cc1C
Activity (Rattus norvegicus [1]): -3%
Activity (Rattus norvegicus [2]): -62%
Activity (Rattus norvegicus [3]): 24%
Activity (Rattus norvegicus [4]): 13%

CCCCCCCCCCCCOC(=O)c1ccc(OCc2ccccc2)cc1
Activity (Rattus norvegicus [1]): -11%
Activity (Rattus norvegicus [2]): -57%
Activity (Rattus norvegicus [3]): -3%
Activity (Rattus norvegicus [4]): 6%

CCOC(=O)c1ccc(COc2ccc(OC)cc2)cc1
Activity (Rattus norvegicus [1]): 4%
Activity (Rattus norvegicus [2]): -57%
Activity (Rattus norvegicus [3]): -19%
Activity (Rattus norvegicus [4]): -4%

CCOC(=O)c1ccc(OCc2cccc(OC)c2)cc1
Activity (Rattus norvegicus [1]): -10%
Activity (Rattus norvegicus [2]): -32%
Activity (Rattus norvegicus [3]): 2%
Activity (Rattus norvegicus [4]): 4%

CCOC(=O)c1ccc(COc2ccc(C)c(C)c2)cc1
Activity (Rattus norvegicus [1]): 3%
Activity (Rattus norvegicus [2]): 109%
Activity (Rattus norvegicus [3]): -1%
Activity (Rattus norvegicus [4]): 10%

CCCCCCOC(=O)c1ccc(OCc2ccccc2)cc1
Activity (Rattus norvegicus [1]): -9%
Activity (Rattus norvegicus [2]): -64%
Activity (Rattus norvegicus [3]): -3%
Activity (Rattus norvegicus [4]): 8%

COc1ccccc1COc1ccc(C(=O)O)cc1
Activity (Rattus norvegicus [1]): -29%
Activity (Rattus norvegicus [2]): 71%
Activity (Rattus norvegicus [3]): 3%
Activity (Rattus norvegicus [4]): 17%

CCOC(=O)c1ccc(COc2ccc(C#N)cc2)cc1
Activity (Rattus norvegicus [1]): -12%
Activity (Rattus norvegicus [2]): -21%
Activity (Rattus norvegicus [3]): -46%
Activity (Rattus norvegicus [4]): 20%

CC(=O)c1ccc(OCc2ccccc2)cc1
Activity (Rattus norvegicus [1]): 9%
Activity (Rattus norvegicus [2]): -46%
Activity (Rattus norvegicus [3]): -11%
Activity (Rattus norvegicus [4]): -6%

CCOC(=O)CCc1ccc(OCc2ccccc2F)cc1
Activity (Rattus norvegicus [1]): -4%
Activity (Rattus norvegicus [2]): -49%
Activity (Rattus norvegicus [3]): 14%
Activity (Rattus norvegicus [4]): 7%

CCCCCCCCCCCCc1ccc(OCc2ccccc2)cc1
Activity (Rattus norvegicus [1]): 2%
Activity (Rattus norvegicus [2]): -37%
Activity (Rattus norvegicus [3]): 9%
Activity (Rattus norvegicus [4]): 8%

CCOC(=O)c1cccc(OCc2ccccc2)c1
Activity (Rattus norvegicus [1]): 4%
Activity (Rattus norvegicus [2]): -30%
Activity (Rattus norvegicus [3]): 4%
Activity (Rattus norvegicus [4]): 6%

CCOC(=O)Cc1ccc(OCc2cccc(OC)c2OC)cc1
Activity (Rattus norvegicus [1]): 1%
Activity (Rattus norvegicus [2]): -25%
Activity (Rattus norvegicus [3]): 12%
Activity (Rattus norvegicus [4]): 20%

CCOC(=O)c1ccc(OCc2ccc(OC)cc2)cc1
Activity (Rattus norvegicus [1]): -7%
Activity (Rattus norvegicus [2]): -55%
Activity (Rattus norvegicus [3]): -52%
Activity (Rattus norvegicus [4]): 20%

CCOC(=O)c1ccc(OCc2ccc(Cl)c(Cl)c2)cc1
Activity (Rattus norvegicus [1]): -7%
Activity (Rattus norvegicus [2]): 5%
Activity (Rattus norvegicus [3]): -5%
Activity (Rattus norvegicus [4]): 10%

CCCc1ccc(OCc2ccc(C)cc2)c(OC)c1
Activity (Rattus norvegicus [1]): -13%
Activity (Rattus norvegicus [2]): 216%
Activity (Rattus norvegicus [3]): -18%
Activity (Rattus norvegicus [4]): 33%

CCOC(=O)c1ccc(COc2ccc(C(=O)OCC)cc2)cc1
Activity (Rattus norvegicus [1]): -11%
Activity (Rattus norvegicus [2]): -60%
Activity (Rattus norvegicus [3]): 3%
Activity (Rattus norvegicus [4]): -2%

O=C(OC1CCCC1)c1ccc(OCc2ccccc2)cc1
Activity (Rattus norvegicus [1]): -14%
Activity (Rattus norvegicus [2]): -29%
Activity (Rattus norvegicus [3]): -4%
Activity (Rattus norvegicus [4]): -14%

O=C(Oc1ccccc1)c1ccc(OCc2ccccc2)cc1
Activity (Rattus norvegicus [1]): 0%
Activity (Rattus norvegicus [2]): -18%
Activity (Rattus norvegicus [3]): -1%
Activity (Rattus norvegicus [4]): 0%

CCOC(=O)c1ccccc1OCc1ccccc1
Activity (Rattus norvegicus [1]): 0%
Activity (Rattus norvegicus [2]): -15%
Activity (Rattus norvegicus [3]): -26%
Activity (Rattus norvegicus [4]): -2%

CCOC(=O)CCc1ccc(OCc2cccc(OC)c2OC)cc1
Activity (Rattus norvegicus [1]): 7%
Activity (Rattus norvegicus [2]): -9%
Activity (Rattus norvegicus [3]): 4%
Activity (Rattus norvegicus [4]): 23%

CCOC(=O)c1ccc(OCc2ccc(OC)c(OC)c2)cc1
Activity (Rattus norvegicus [1]): -1%
Activity (Rattus norvegicus [2]): -33%
Activity (Rattus norvegicus [3]): -20%
Activity (Rattus norvegicus [4]): 11%

COc1cc(C(C)=O)ccc1OCc1ccccc1
Activity (Rattus norvegicus [1]): 5%
Activity (Rattus norvegicus [2]): -51%
Activity (Rattus norvegicus [3]): -37%
Activity (Rattus norvegicus [4]): 13%

O=C(NC1CCCCC1)c1ccc(OCc2ccccc2)cc1
Activity (Rattus norvegicus [1]): -5%
Activity (Rattus norvegicus [2]): -18%
Activity (Rattus norvegicus [3]): -21%
Activity (Rattus norvegicus [4]): 5%

CCOC(=O)CCCc1ccc(OCc2ccccc2)cc1
Activity (Rattus norvegicus [1]): -10%
Activity (Rattus norvegicus [2]): -59%
Activity (Rattus norvegicus [3]): -57%
Activity (Rattus norvegicus [4]): 9%

CCOC(=O)c1ccc(OCc2ccc([N+](=O)[O-])cc2)cc1
Activity (Rattus norvegicus [1]): -12%
Activity (Rattus norvegicus [2]): -28%
Activity (Rattus norvegicus [3]): -15%
Activity (Rattus norvegicus [4]): -2%
